According to patent US8455450B2, “Methods for obtaining a therapeutically effective amount of hematopoietic precursor cells and long term engraftment thereof” (Biokine Therapeutics Ltd., priority 2006, dated 2013):
Bridge positions count the residues as written; N and C are the ends. Square brackets hold non-standard residues; d marks the D form. Peptide text beside a SMILES is read from it. * marks the point of attachment. 2Nal = N[C@@H](Cc1ccc2ccccc2c1)C(=O)O; Benzoyl(4-F) = O=C(c1ccc(F)cc1)*; Cit = NC(=O)NCCC[C@H](N)C(=O)O

How the values were obtained:
neutrophils = assay: Chemotherapy (cyclophosphamide)-induced neutropenia model, neutrophil counts; assay type: in vivo, C57BL/6 mice; settings: cyclophosphamide 150 + 100 mg/kg i.p. days 1 and 4, treatment s.c. days 4-7 (4F-benzoyl-TN14003 5 mg/kg)
Protocol: In the chemotherapy-induced neutropenia model, a protocol as previously described was followed (Zuluaga et al., 2006). Briefly, Female C57BL/6 mice were injected intraperitoneally with 150 and 100 mg/kg of Cyclophosphamide (CPM) on days 1 and 4, respectively. Following the treatment with CPM, mice were injected s.c. with either G-CSF […], 4F-benzoyl-TN14003 (5 mg/kg) or their combination on day 4, 5, 6 and 7. Blood samples were drawn from each mouse on day 0 and two hours after G-CSF/4F-benzoyl-TN14003 injections on days 4, 5, 6 and 7. Lysis of the erythrocyte population in the blood samples was done using ACK lysis buffer. The number of neutrophils was determined by FACS after staining the cells with anti-PE-Gr-1 antibody.
Neutropenia was induced in female C57BL/6 mice by administration of a total dose of 250 mg/kg cyclophosphamide (CPM) in two 0.5 mL intraperitoneal injections scheduled at day 1 (150 mg/kg) and day 4 (100 mg/kg). The CPM protocol caused 4 days of neutropenia (from day 4 to day 8). When mice were treated with the combination of G-CSF and 4F-benzoyl-TN14003, a significant number of neutrophils was detected in the blood on day 6, as compared to mice that were treated with CPM only or with G-CSF or 4F-benzoyl-TN14003 alone (FIG. 12).

[1] = system: BM cells on stromal cells (14F1.1); assay: In vitro production of progenitors and mature cells from BM cells seeded on stromal cells (14F1.1); assay type: cell-based
Protocol: More specifically, the number of colonies was assayed by collecting the cells (10^5/plate) 4 days after treatment form the treated and control (untreated) plates, and evaluating the number of progenitor cells using a colony-forming cell assay. Burst forming units erythrocyte (BFU-E), colony forming units granulocyte-macrophage (CFU-GM), colony forming units megakaryocytes (CFU-M), and colony forming units granulocyte-erythrocyte-monocyte-macrophage (CFU-GEMM) were assayed by plating the cells in Iscove's-modified Dulbecco's Medium (IMDM) containing 1% methylcellulose, 15% FBS, 1% bovine serum albumin (BSA), 3 U/mL rh EPO, […] 2-mercaptoethanol, 2 mM L-glutamine, 50 ng/mL rmSCF, 10 ng/mL rmIL-3, […] rh Insulin, 10 ng/mL rh IL-6, and […] Human Transferrin (Methocult GF M3434; StemCell Technologies Inc.). The cultures were incubated at 37° C. in a humidified atmosphere containing 5% CO2. Seven days later, typical colonies were visually scored by morphologic criteria using a light microscope and the frequency of CFU was calculated. Staining colonies with benzidine dihydrochloride (Sigma, Israel) was used to localize hemoglobin-containing cells.

[2] = system: hematopoietic stem cells (HSCs); assay: Hematopoietic stem cell assay: transplantation of mobilized blood cells into lethally irradiated mice, survival; assay type: in vivo, C57BL/6 mice; settings: 2 h
Protocol: C57BL/6 mice, served as donors, were injected with 5 mg/kg of either 4F-benzoyl-TN14003 or AMD3100. 2 h later peripheral blood cells were collected following by ACK lysis and transferred into C57BL/6 recipient mice that were given a lethal dosing of irradiation (900 cGy) 24 h before i.v. injection of cells. A total cell obtained from 900 or 225 microliter of blood was transferred into single recipient mouse in a total volume of 200 μl PBS. Recipient mice transferred with cells obtained from blood of untreated mice or with normal BM cells were served as controls. Survival of mice was monitored for 4 months.
Although mobilization of HPCs may be of use for short-term repopulation in a transplantation setting, HSCs are required for long-term repopulation. To assess the effect of 4F-benzoyl-TN14003 on mobilization of murine HSCs, a transplantation model was used, in which donor C57Bl/6 mice were treated with 4F-benzoyl-TN14003 or AMD3100. After 2 h, blood was collected and cells isolated from an equal volume of blood obtained from each treated group (900 or 225 microliter in different experiments) were transferred for engraftment in lethally irradiated recipient C57Bl/6 mice. Survival of the recipient mice, indicative for long-term repopulating (LTR) activity and presence of HSCs, was monitored.

PC3-CXCR4.5 cells = assay: MIP3α secretion by CXCR4-overexpressing PC3-CXCR4.5 cells (ELISA); assay type: cell-based; settings: transfection with CXCR4-specific or control siRNA
Excerpt: A PC3 prostate cell line that overexpresses high levels of CXCR4 was generated. […] FIG. 1A presents FACS histograms of PC3 cells (left panel) and a single cell clone with stable overexpression of CXCR4, GFP and luc genes (PC3-CXCR4.5, right panel) that were stained for the control (IgG2a-PE, full histograms) and CXCR4 (IgG2a-12G5, empty histograms) antibodies.
In this example, regulation of the chemokine MIP3α (macrophage inflammatory protein 3α) was examined. […] In FIG. 1B, PC3 (left panel) and PC3-CXCR4.5 (right panel) cells were stimulated with the indicated concentrations of CXCL12 for 48 hours and MIP3α secretion was assessed by ELISA. The results represent the average of triplicates±STDEV.
The effects of the CXCR4 antagonist AMD3100 and of 4F-benzoyl-TN14003 (4FB-TN14003), hitherto known as a CXCR4 antagonist, on MIP3α secretion were further tested. […] In FIG. 10, CXCR4 signaling in PC3 (left panel) and PC3-CXCR4.5 (right panel) cells was inhibited with anti-CXCL12 antibodies (αCXCL12) and Pertussis toxin (PTX) treatments alone or in combination with CXCL12, as indicated. Secretion of MIP3α was assessed by ELISA. The results represent the average of triplicates±STDEV.
Spontaneous secretion of MIP3α is CXCL12 and PTX independent in these cells.

proerythroblast cells = assay: Proerythroblasts in blood, FACS with anti-Ter-119; assay type: in vivo, C57BL/6 mice; settings: 5 mg/kg s.c.; 2 hours
Protocol: To assess the number of cells in blood and BM, and to distinguish between the different populations, FACScan flow cytometer was used. Cells derived from these organs were gated according to forward scatter and side scatter to exclude dead cells and to determine granulocytes, mononuclear cells and activated macrophage populations. The number of each cell population was counted. Cells were also stained in 0.1 ml FACS buffer with fluorescence antibodies directed against Gr-1, CD3, mac-1, F4/80, Nk1.1, B220 and Ter-119 molecules or matched isotype controls (all from eBiosience, San Diego, Calif.) for 30 min and washed with FACS buffer.
C57BL/6 mice were s.c. injected with 5 mg/kg 4F-benzoyl-TN14003. 2 hours later blood was obtained and the number of proerythroblast cells was evaluated by FACS following staining with anti-Ter-119 (FITC). Data are expressed as average±SD of five mice/group.

## N=C(N)NCCC[C@H](NC(=O)[C@@H]1CSSC[C@H](NC(=O)[C@H](Cc2ccc3ccccc3c2)NC(=O)[C@H](CCCNC(=N)N)NC(=O)[C@H](CCCNC(=N)N)NC(=O)c2ccc(F)cc2)C(=O)N[C@@H](Cc2ccc(O)cc2)C(=O)N[C@@H](CCCNC(N)=O)C(=O)N[C@@H](CCCCN)C(=O)N[C@H](CCCCN)C(=O)N2CCC[C@H]2C(=O)N[C@@H](Cc2ccc(O)cc2)C(=O)N[C@@H](CCCNC(=N)N)C(=O)N[C@@H](CCCNC(N)=O)C(=O)N1)C(N)=O [4F-benzoyl-TN14003, 4F-benzoly-Arg-Arg-Nal-Cys-Tyr-Cit-Lys-DLys-Pro-Tyr-Arg-Cit-Cys-Arg-NH2] ({Benzoyl(4-F)}-RR[2Nal]CY[Cit]K[dK]PYR[Cit]CR-NH2; disulfide 4-13)
neutrophils; day 6
  number of neutrophils in blood as % of the initial number in normal (untreated) mice: only a mild effect
neutrophils; day 7
  number of neutrophils in blood as % of the initial number: not sufficient to elevate neutrophil counts to their normal level
[1]; representative experiment, FIG. 17E
  differentiation and proliferation of BM cells on stromal cells (micrographs): differentiating and proliferating
[1]; stromal cells (14F1.1) seeded with BM cells, 4F-benzoyl-TN14003 10 microgram/ml, G-CSF 100 ng/ml, 4 days
  production of GR-1 and Ter119 positive cells and progenitors: stimulated the production of GR-1 and Ter119 positive cells as well as progenitors
[2]; cells from 225 microliter of blood of donors given 5 mg/kg, day 33 post transplantation
  survival of lethally irradiated recipient mice: 70.6%
[2]; cells from 900 microliter of blood of donors given 5 mg/kg, until day 42 post transplantation
  survival of lethally irradiated recipient mice: one hundred
PC3-CXCR4.5 cells
  CXCR4 dependence of induced MIP3α secretion: CXCR4 dependent
Proerythroblast cells
  number of proerythroblasts (Ter119) in blood, fold elevation from the control level: 3.2 fold
